Legend:
[1] = tested on: Mus musculus; test: Percent increase in life-span against in vivo P388 murine leukemia at a dose 0.78 mg/kg in trail 1; format: functional
[2] = tested on: Mus musculus; test: Percent increase in life-span against in vivo P388 murine leukemia at a dose 12.5 mg/kg in trail 2; format: functional
[3] = organism: Mus musculus; details: in vivo
Description: Logarithm of toxic activity (1/lethal dose) in mice bearing P388 leukemia on chronic regimen (Q 1-9)

[4] = tested on: Mus musculus; test: Percent increase in life-span against in vivo P388 murine leukemia at a dose 0.78 mg/kg in trail 2; format: functional
[5] = tested on: Mus musculus; test: Percent increase in life-span against in vivo P388 murine leukemia at a dose 3.12 mg/kg in trail 2; format: functional
[6] = tested on: Mus musculus; test: Percent increase in life-span against in vivo P388 murine leukemia at a dose 3.12 mg/kg in trail 1; format: functional
[7] = tested on: Mus musculus; test: Percent increase in life-span against in vivo P388 murine leukemia at a dose 1.56 mg/kg in trail 2; format: functional
[8] = tested on: Mus musculus; test: Percent increase in life-span against in vivo P388 murine leukemia at a dose 1.56 mg/kg in trail 1; format: functional
[9] = tested on: Mus musculus; test: Percent increase in life-span against in vivo P388 murine leukemia at a dose 0.39 mg/kg) in trail 1; format: functional
[10] = tested on: Mus musculus; test: Percent increase in life-span against in vivo P388 murine leukemia at a dose 0.39 mg/kg in trail 2; format: functional
[11] = tested on: Mus musculus; test: Percent increase in life-span against in vivo P388 murine leukemia at a dose 6.25 mg/kg in trail 1; format: functional
[12] = physchem; details: octanol/water
Description: Partition coefficient (logP)

[13] = tested on: Mus musculus; test: Percent increase in life-span against in vivo P388 murine leukemia at a dose 6.25 mg/kg in trail 2; format: functional
[14] = Compound was tested for toxicity in non tumored mice; format: organism-based; details: mouse, in vivo
[15] = Compound was tested for toxicity in P388 tumored mice; format: organism-based; details: mouse, in vivo
[16] = tested on: Mus musculus; test: Percent increase in life-span against in vivo P388 murine leukemia at a dose 0.5 mg/kg in trail 2; format: functional
[17] = tested on: Mus musculus; test: Percent increase in life-span against in vivo P388 murine leukemia at a dose 0.25 mg/kg in trail 1; format: functional
[18] = tested on: Mus musculus; test: Percent increase in life-span against in vivo P388 murine leukemia at a dose 0.25 mg/kg in trail 2; format: functional
[19] = tested on: Mus musculus; test: Percent increase in life-span against in vivo P388 murine leukemia at a dose 0.06 mg/kg in trail 2; format: functional
[20] = tested on: Mus musculus; test: Percent increase in life-span against in vivo P388 murine leukemia at a dose 0.06 mg/kg in trail 1; format: functional
[21] = tested on: Mus musculus; test: Percent increase in life-span against in vivo P388 murine leukemia at a dose 0.5 mg/kg in trail 1; format: functional
[22] = tested on: Mus musculus; test: Percent increase in life-span against in vivo P388 murine leukemia at a dose 0.12 mg/kg in trail 1; format: functional
[23] = tested on: Mus musculus; test: Percent increase in life-span against in vivo P388 murine leukemia at a dose 0.12 mg/kg in trail 2; format: functional

SMILES	Log 1/LD50 [3]	LD50 [14] [mg/kg]	LD50 [15] [mg/kg]	further results
COc1c(C=O)c2c(c(OC)c1OC)-c1ccc(OC)c(=O)cc1[C@@H](NC(C)=O)CC2	4.14			ILS at 0.78 mg/kg [1]: 54%; ILS at 12.5 mg/kg [2]: 2%; ILS at 0.78 mg/kg [4]: 49%; ILS at 3.12 mg/kg [5]: 80%; ILS at 3.12 mg/kg [6]: 94%; ILS at 1.56 mg/kg [7]: 75%; ILS at 1.56 mg/kg [8]: 60%; ILS at 0.39 mg/kg [9]: 51%; ILS at 0.39 mg/kg [10]: 49%; ILS at 6.25 mg/kg [11]: 105%; logP [12]: 5.92; ILS at 6.25 mg/kg [13]: 105%
COC1=C2C(=CC(=O)C1OC)CC[C@H](NC(C)=O)c1cc(=O)c(OC)ccc12 (some centres undefined)	5.82			logP [12]: 0.93
COc1c(C#N)c2c(c(OC)c1OC)-c1ccc(OC)c(=O)cc1[C@@H](NC(C)=O)CC2	3.8			logP [12]: 4.46
CCOC(=O)N[C@H]1CCc2cc(OC)c(OC)c(OC)c2-c2ccc(SC)c(=O)cc21	4.19			
COc1cc2c(c(OC)c1OC)-c1ccc(SC)c(=O)cc1[C@@H](NC(=O)C(F)(F)F)CC2	5.51	3.5	1.4	
COc1cc2c(c(OC)c1OC)-c1ccc(OC)c(=O)cc1[C@@H](NC(=O)c1ccccc1)CC2	4.24			
COc1cc2c(c(OC)c1OC)-c1ccc(SC)c(=O)cc1[C@@H](N)CC2	3.75	177	69	
COc1cc2c(c(OC)c1OC)-c1ccc(SC)c(=O)cc1[C@@H](NC(=O)NCCCl)CC2	4.93			
COc1cc2c(c(OC)c1OC)-c1ccc(OC)c(=O)cc1[C@@H](NC(=O)CCl)CC2	5.54			
COc1cc2c(c(OC)c1OC)-c1ccc(OC)c(=O)cc1[C@@H](NC(=O)c1ccc([N+](=O)[O-])cc1)CC2	4.41	25	20	
COc1cc2c(c(OC)c1OC)-c1ccc(SC)c(=O)cc1[C@@H](NO[C@H]1O[C@@H](CO)[C@H](O)[C@@H](O)[C@@H]1O)CC2	3.71			logP [12]: 1.25
COc1cc2c(c(OC)c1OC)-c1ccc(SC)c(=O)cc1[C@@H](NO[C@H]1O[C@@H](COC(C)=O)[C@H](OC(C)=O)[C@@H](OC(C)=O)[C@@H]1OC(C)=O)CC2	3.81			logP [12]: 4.61
COc1cc2c(c(OC)c1OC)-c1ccc(SC)c(=O)cc1[C@@H](NO[C@H]1OC[C@@H](O)[C@@H](O)[C@@H]1O)CC2	3.98	251	102	logP [12]: 1.4
COc1cc2c(c(OC)c1OC)-c1ccc(SC)c(=O)cc1[C@@H](NC(=O)CCl)CC2	5.65			
COc1c(CO)c2c(c(OC)c1OC)-c1ccc(OC)c(=O)cc1[C@@H](NC(C)=O)CC2	3.4			logP [12]: 4.58
COc1cc2c(c(OC)c1OC)-c1ccc(SC)c(=O)cc1[C@@H](NC(=O)CO)CC2	5.66			
COc1cc2c(c(OC)c1OC)-c1ccc(OC)c(=O)cc1[C@@H](NC(=O)C(F)(F)F)CC2	5.73	1.9	0.8	
COC(=O)C(N)CCCC/N=c1\ccc2c(cc1O)[C@@H](NC(C)=O)CCc1cc(OC)c(OC)c(OC)c1-2 (some centres undefined)	3			
COc1cc2c(c(OC)c1OC)-c1ccc(OC)c(=O)cc1[C@@H](NC=O)CC2	5.16	5	2.7	
COc1cc2c(c(OC)c1OC)-c1cc/c(=N\Cc3ccccc3)c(O)cc1[C@@H](NC(C)=O)CC2	4.28	41	25.1	
COc1cc2c(c(OC)c1OC)-c1ccc(OC)c(=O)cc1[C@@H](NC(=O)CF)CC2	5.69			
COc1cc2c(c(OC)c1OC)-c1ccc(SCc3ccccc3)c(=O)cc1[C@@H](NC(C)=O)CC2	4.22			
COc1cc2c(c(OC)c1OC)-c1ccc(OC)c(=O)cc1[C@@H](N(C)C)CC2	4.21			
CNc1ccc2c(cc1=O)[C@@H](NC(C)=O)CCc1cc(OC)c(OC)c(OC)c1-2	5.72	1.4	0.8	
COc1cc2c(c(OC)c1OC)-c1ccc(OC)c(=O)cc1[C@@H](NC(C)=O)CC2 [COLCHICINE]	5.46	1.6	1.4	ILS at 0.5 mg/kg [16]: 89%; ILS at 0.25 mg/kg [17]: 46%; ILS at 0.25 mg/kg [18]: 58%; ILS at 0.06 mg/kg [19]: 24%; ILS at 0.06 mg/kg [20]: 27%; ILS at 0.5 mg/kg [21]: 78%; ILS at 0.12 mg/kg [22]: 33%; ILS at 0.12 mg/kg [23]: 40%
COc1cc2c(c(OC)c1OC)-c1ccc(OC)c(=O)cc1[C@@H](N)CC2 [DEACETYLCOLCHICINE]	3.71			
CN[C@H]1CCc2cc(OC)c(OC)c(OC)c2-c2ccc(OC)c(=O)cc21 [DEMECOLCINE]	3.63			
COc1cc2c(c(OC)c1OC)-c1ccc(SC)c(=O)cc1[C@@H](NC(C)=O)CC2 [THIOCOLCHICINE]	5.62	1	1	
